Entries after “also recorded” stand apart in the source; their conditions may differ. Structures can show the parent of a compound that is named as a salt.
Legend:
arthritis [1] = details: cited from earlier work; for inhibition of inflammation in an arthritis model: in vivo
TNFα = assay: Whole blood assay: inhibition of LPS-induced TNFα release (TNF ELISA); format: cell-based, human; details: for effect on TNF production or release (in words) / inhibition of TNF production at the upper range of the dose curve: 25% whole blood diluted in plasmalyte
Method: […]. […] The experiment was conducted at least 2 times in duplicates and the fitted representation above consists of the average of those experiments. The IC50 values were calculated using logistic analysis on Origin Software.
FIG. 4 illustrates a graph showing the inhibition of release of TNF α by terbutaline and salbutamol. This assay evaluated the inhibition of TNF production by salbutamol and terbutaline using the whole blood assay. This method utilized an LPS induction at 10 μg/ml in 25% whole blood diluted in plasmalyte. […] Higher doses were not evaluated because the equivalent mg/kg doses would be too high, therefore, limiting their practical use under therapeutic conditions. IC50 values were not calculated. […] The data and the fit were calculated using Origin Software.
FIG. 5 illustrates a graph showing the inhibition of TNF production by butoxamine, and induction of TNF release by atenolol and metoprolol. […].
This assay measured prazosin alone, and the combination of: prasozin/butoxamine, prasozin/butoxamine/terbutaline, prasozin/butoxamine/salbutamol, and prazosin/salbutamol. […].
We collected whole human blood in a polypropylene tube. Containing a final concentration of 10 units of heparin per ml of blood using gravity flow with 19-gauge needle. To prevent non-specific activation of cells, we used the blood within 30 minutes of draw. The blood was diluted with plasmalyte to 50%, 40%, 30%, 20%, and 10% concentrations. In a matrix based assay set up, each blood dilution was treated with various concentrations of LPS dosages ranging from 60 μg/ml, 10 μg/ml, 6 μg/ml, 1 μg/ml, 0.6 μg/ml, 0.1 μg/ml, and 0.06 μg/ml. The LPS treated blood was incubated at 37 degree in an incubator with continues rotation. Following the incubation, the blood was centrifuged and the plasma was evaluated for TNF quantification using the ELISA assay (BD Biosciences, Los Angeles, Calif.).
We initially tested the ability of LPS to produce TNF from monocytes, by adding various dilutions of LPS (60 μg, 10 μg, 6 μg, 1 μg, 0.6 μg, 0.1 μg, 0.06 μg) per ml of diluted blood (blood dilutions 50%, 40%, 20%, 10%, and 5%). Blood dilutions were made in the clinically relevant buffer “plasmalyte”. LPS treated blood was incubated at 37° C. for 2 hr. Following incubation, we separated the plasma samples by centrifugation. We evaluated the samples using TNF-ELISA. […] Relying on FIG. 1, we conducted a blood dilution curve with 10 μg/ml LPS (FIG. 2). Based on interpretation of FIGS. 1 and 2, we concluded that blood dilution of 20-25% would be ideal at an LPS dose of 10 μg/ml. Based on the FIG. 2 data, we found LPS causes a near linear increase of TNF production in 20% blood. […] If there is too much blood, there will be heavy concentrations of TNF production, exceeding the detection levels of the assay. Using this optimization data, we created a fixed method to measure the inhibition of TNF production or release with various drugs and drug combinations.
Blood was drawn from thirteen independent donors under an IRB approved protocol. […] The blood samples were spun and plasma evaluated for TNF production using TNF ELISA from BD Biosciences. […]. […] It could also provide a possible treatment for rheumatoid arthritis. […]

knee and ankle joints = assay: Histology of knee and ankle joints after CIA; details: CIA mice
[2] = Body weight in mouse CIA model (gross measure of drug toxicity); details: CIA mice, days 18-35
[3] = tested on: collagen induced arthritis; details: cited from earlier work
arthritis [4] = details: rat arthritis model; cited from earlier work
[5] = CIA mice, same experimental protocol; cited from earlier work

COc1ccc(OC)c(C(O)C(C)NC(C)(C)C)c1 (racemic) [Butoxamine, DL-erythro-α-(2,5-dimethoxyphenyl)-β-t-butyl aminopropanol hydrochloride]
inhibition of arthritis in animals (in words) (arthritis [1]; previous reports): potent inhibitor of arthritis in animals
effect on TNF production or release (in words) (TNFα; LPS 10 μg/ml): very little inhibition if at all
inhibition of TNF production at the upper range of the dose curve (TNFα; LPS 10 μg/ml): ≤ 20%

CC(C)NCC(O)COc1ccc(CC(N)=O)cc1 (stereo not shown) [Atenolol, atenolol]
effect on TNF production or release (in words) (TNFα; LPS 10 μg/ml): significant elevation in the TNF response; also recorded: activators of TNF release

COCCc1ccc(OCC(O)CNC(C)C)cc1 (stereo not shown) [Metoprolol, metoprolol]
effect on TNF production or release (in words) (TNFα; LPS 10 μg/ml): significant elevation in the TNF response; also recorded: activators of TNF release

Cc1ccc(N(CC2=NCCN2)c2cccc(O)c2)cc1 [Phentolamine, phentolamine]
effect on TNF production or release (in words) (TNFα; LPS 10 μg/ml): does not have the same level of inhibition as prazosin and yohimbine alone

COc1cc2nc(N3CCN(C(=O)c4ccco4)CC3)nc(N)c2cc1OC [Prazosin, prazosin]
joint histology (Toluidine blue) (knee and ankle joints): prevents inflammation, bone and cartilage destruction, pannus formation and bone erosion
drug concentration at which TNF activity is inhibited (TNFα; LPS 10 μg/ml, 25% blood diluted in plasmalyte): 20 µg/mL
effect on TNF production or release (in words) (TNFα; LPS 10 μg/ml): lowest IC50
inhibition of TNF production at the upper range of the dose curve (TNFα; LPS 10 μg/ml): ~100%
inhibition of TNF at the upper range of the dose curve, thirteen donors (TNFα; blood of thirteen independent donors, 37 degrees, 2 hours): ~100%
body weight change [2]: weight remained constant
body weight change ([2]; listed as NM2014): essentially unchanged

CC(C)(C)NCC(O)c1ccc(O)c(CO)c1 (stereo not shown) [Salbutamol, salbutamol]
inhibition of inflammation in an arthritis model (arthritis [1]): 50%
severity of collagen-induced arthritis (in words) ([3]; mouse, in vivo): reduces the severity of collagen-induced arthritis

CC(C)(C)NCC(O)c1cc(O)cc(O)c1 (stereo not shown) [Terbutaline, terbutaline]
inhibition of inflammation in an arthritis model (arthritis [1]): 50%
reduction of disease severity (arthritis [4]): 50%
benefit in collagen induced arthritis ([3]; mice): 50%
effect on TNF production or release (in words) (TNFα; LPS 10 μg/ml): minimal effect

COC(=O)[C@@H]1[C@H]2C[C@H]3c4[nH]c5ccccc5c4CCN3C[C@@H]2CC[C@@H]1O [Yohimbine, yohimbine]
IC50 (TNFα; Homo sapiens, LPS 10 μg/ml, 25% blood diluted in plasmalyte, 37° C. 2 h): 70 to 100 µg/mL
inhibition of TNF production at the upper range of the dose curve (TNFα; LPS 10 μg/ml): 80%

Enbrel
body weight change, historical Enbrel data [5]: essentially unchanged

From US20110195974A1, “METHODS OF TREATING INFLAMMATORY CONDITIONS WITH ADRENERGIC ANTAGONISTS” (priority 2007, published 2011)
